Active and inactive are the calls of the source. No cut-off for these calls is given here.
Assays:
H5N1 subtype [1] = assay: Antiviral activity against pseudotyped Influenza A virus H5N1 (Goose/Qinghai/59/05) infected in human A549 cells assessed as inhibition of viral replication at 12.5 uM incubated for 48 hrs by luciferase reporter gene assay relative to control; type: functional; settings: Goose/Qinghai/59/05, A549, 48 h
H5N1 subtype [2] = assay: Antiviral activity against pseudotyped Influenza A virus H5N1 (Goose/Qinghai/59/05) infected in human A549 cells assessed as inhibition of viral replication at incubated for 48 hrs by luciferase reporter gene assay; type: functional, organism-based; settings: Goose/Qinghai/59/05, A549, 48 h
Influenza A virus [3] = assay: Antiviral activity against Influenza A virus (A/Puerto Rico/8/1934(H1N1)) infected in MDCK cells incubated for 1 hr and measured after 36 hrs by PR8-PB2 Gaussia luciferase reporter gene assay; type: functional, organism-based
Influenza A virus [4] = assay: Antiviral activity against Influenza A virus (A/Puerto Rico/8/1934(H1N1)) infected in human A549 cells assessed as decrease in viral titer at 1 uM by standard plaque assay; type: functional, organism-based
H5N1 subtype [5] = assay: Antiviral activity against Influenza A virus (A/Viet Nam/1203/2004(H5N1)) infected in human A549 cells assessed as decrease in viral titer at 1 uM by standard plaque assay; type: functional, organism-based
H5N1 subtype [6] = assay: Antiviral activity against Influenza A virus (A/Viet Nam/1203/2004(H5N1)) infected in human A549 cells assessed as decrease in viral titer at 20 uM by standard plaque assay; type: functional

Compound	inhibition at 12.5 µM (H5N1 subtype [1])	EC50 (H5N1 subtype [2])	EC50 (Influenza A virus [3])	also measured
O=C(NC1CCN(C2CCC2)CC1)c1c(Cl)cccc1Cl	76%			
CC(C)N1CCC(NC(=O)c2ncccc2Cl)CC1	40%			
CC(C)N1CCC(NC(=O)c2ccc(C(F)(F)F)cc2Cl)CC1	99%	0.36 µM	0.38 µM	inhibition (Influenza A virus [4]): Active; inhibition (H5N1 subtype [5]): Active; inhibition at 20 µM (H5N1 subtype [6]): 100%
CC(C)N1CCC(N(C)C(=O)c2c(Cl)cccc2Cl)CC1	91%	4.45 µM	0.724 µM	
CC(C)N1CCN(C(=O)c2c(Cl)cccc2Cl)CC1	4%			
CC(C)N1CCC(NC(=O)c2c(Cl)cccc2Cl)CC1	90%	3.04 µM	0.272 µM	inhibition (Influenza A virus [4]): Active; inhibition (H5N1 subtype [5]): Active; inhibition at 20 µM (H5N1 subtype [6]): 100%
CC(C)N1CC[C@@H](NC(=O)c2ccc(C(F)(F)F)cc2Cl)[C@@H](F)C1	87%	2.93 µM	0.989 µM	
O=C(NC1CCN(C2COC2)CC1)c1c(Cl)cccc1Cl	7%			
CC(C)CN1CCC(NC(=O)c2c(Cl)cccc2Cl)CC1	89%	2.15 µM	0.852 µM	
CC(C)N1CCC(NC(=O)c2c(Cl)cccc2Cl)C1 (stereo not given)	11%			
CC(C)N1CCCC(NC(=O)c2c(Cl)cccc2Cl)C1 (stereo not given)	14%			
CC(C)N1CCC(NC(=O)c2ncc(Cl)cc2Cl)CC1	39%			
CO[C@H]1CN(C(C)C)CC[C@H]1NC(=O)c1c(Cl)cccc1Cl	64%			
CC(C)N1CCC2(CC1)OCCN2C(=O)c1c(Cl)cccc1Cl	19%			
CC(C)N1CCC(C)(NC(=O)c2c(Cl)cccc2Cl)CC1	75%			
CC(C)N1CC[C@@H](NC(=O)c2ccc(C(F)(F)F)cc2Cl)[C@H](F)C1	99%	0.63 µM	0.263 µM	
CC(C)CN1CCC(NC(=O)c2ccc(C(F)(F)F)cc2Cl)CC1	73%			

— ChEMBL document CHEMBL4402569
